Test results: ChEMBL document CHEMBL5726857, “Bacterial topoisomerase I inhibitors with antibacterial activity” (2019)

Tests used:
[1] = DNA Gyrase Supercoiling Inhibition Assay: DNA gyrase supercoiling assays were carried out by mixing the compounds and the enzyme in a similar manner as above (EcTopI relaxation inhibition assay) but in a gyrase assay buffer (35 mM Tris-HCl, 24 mM KCl, 4 mM MgCl2, 2 mM DTT, 1.75 mM ATP, 5 mM spermidine, 0.1 mg/mL BSA, 6.5% glycerol at pH 7.5), followed by the addition of 300 ng of relaxed covalently closed circular DNA (New England Biolabs, Ipswich, Mass., USA) to a final reaction volume of 20 μL. The samples were incubated at 37° C. for 30 minutes before being terminated by the addition of a buffer containing 5% SDS, 0.25% bromophenol blue, and 25% glycerol. The reactions were then analyzed by agarose gel electrophoresis.; parameters: species or system Escherichia coli
[2] = E. coli Topoisomerase I Relaxation Activity Inhibition Assay: The relaxation activity of E. coli topoisomerase I was assayed in a buffer containing 10 mM Tris-HCl, pH 8.0, 50 mM NaCl, 0.1 mg/mL gelatin, and 0.5 mM MgCl2. Half microliter from the appropriate stock solutions of compounds dissolved in the solvent (DMSO) or the solvent alone (control) was mixed with 9.5 μL of the reaction buffer containing 10 ng of enzyme before the addition of 10 μL of reaction buffer containing 200 ng of supercoiled pBAD/Thio plasmid DNA purified by cesium chloride gradient as substrate. Following incubation at 37° C. for 30 min, the reactions were terminated by the addition of 4 μL of a stop buffer (50% glycerol, 50 mM EDTA, and 0.5% (v/v) bromophenol blue), and analyzed by agarose gel electrophoresis. The gels were stained in ethidium bromide and photographed under UV light.

## Nc1ccc2c(c1)Oc1c(N3CCNCC3)c(F)cc3c(=O)c(C(=O)O)cn-2c13
[1]
  IC50: 11.7 µM

## Nc1ccc2c(c1)Oc1c(N3CCCCC3)c(F)cc3c(=O)c(C(=O)O)cn-2c13
[2]
  IC50: 3.9 µM

## CCCCCNc1c(F)cc2c(=O)c(C(=O)O)cn3c2c1Oc1cc(N)ccc1-3
[2]
  IC50: 15.6 µM

## CN1CCN(c2c(F)cc3c(=O)c(C(=O)O)cn4c3c2Oc2cc(N)ccc2-4)CC1
[1]
  IC50: 23.4 µM
